Experimental data: ChEMBL document CHEMBL5120909, “Reshaping an Acyclic Nucleoside Phosphonate into a Selective Anti-hepatitis B Virus Compound” (J Med Chem, 2022)

Experiments:
Hepatitis B virus = test: Antiviral activity against wild type HBV infected in human HepG2 2.2.15 cells assessed as reduction in viral replication pre incubated for 3 days followed by replacement with fresh compounds for another 3 days prior to pronase treatment by RT-qPCR analysis; assay type: functional, organism-based, HepG2.2.15; conditions: for EC50: HepG2.2.15; for EC90: HepG2.2.15, 144 h, time 6 day
HepG2 2.2.15 [1] = test: Cytotoxicity against human HepG2.2.15 cells assessed as reduction in cell viability; assay type: functional
Human alphaherpesvirus 3 [2] = test: Antiviral activity against VZV TK- infected in HEL cells assessed as reduction in virus plaque formation; assay type: functional, organism-based; conditions: Human alphaherpesvirus 3, TK-
Human alphaherpesvirus 3 [3] = test: Antiviral activity against VZV TK+ infected in HEL cells assessed as reduction in virus plaque formation; assay type: functional, organism-based; conditions: Human alphaherpesvirus 3, TK+
[4] = tested on: Human immunodeficiency virus 1; test: Anti-HIV activity against wild type HIV-1 IIIB infected in human MT4 cells assessed as inhibition of HIV-induced cytopathic effect measured after 5 days by MTT assay; assay type: functional, organism-based; conditions: Human immunodeficiency virus 1, IIIB, MT4, 120 h
HepG2 2.2.15 [5] = test: Cytotoxicity against human HepG2.2.15 cells assessed as reduction in cell viability incubated for 1 to 4 hrs by MTS uptake assay; assay type: functional; conditions: time 1-4 hrs
[6] = Selectivity index, ratio of CC50 for cytotoxicity against human MT4 cells assessed as reduction in cell viability by MTT assay to EC50 for anti-HIV activity against wild type HIV-1 IIIB infected in human MT4 cells assessed as inhibition of HIV-induced cytopathic effect measured after 5 days by MTT assay; assay type: toxicity, cell-based; conditions: read-out: Ratio CC50/EC50
[7] = Cytotoxicity against human HEL cells assessed as change in cell morphology measured after 3 days […]; assay type: toxicity, cell-based; conditions: time 3 day
[8] = Selectivity index, ratio of CC50 for cytotoxicity against human MT4 cells assessed as reduction in cell viability by MTT assay to EC50 for anti-HIV activity against wild type HIV-2 ROD infected in human MT4 cells assessed as inhibition of HIV-induced cytopathic effect measured after 5 days by MTT assay; assay type: toxicity, cell-based; conditions: read-out: Ratio CC50/EC50
[9] = tested on: Human immunodeficiency virus 2; test: Anti-HIV activity against wild type HIV-2 ROD infected in human MT4 cells assessed as inhibition of HIV-induced cytopathic effect measured after 5 days by MTT assay; assay type: functional, organism-based; conditions: Human immunodeficiency virus 2, ROD, MT4, 120 h
Human betaherpesvirus 5 [10] = test: Antiviral activity against HCMV Davis infected in HEL cells assessed as reduction in virus plaque formation; assay type: functional, organism-based; conditions: Human betaherpesvirus 5, Davis
Human betaherpesvirus 5 [11] = test: Antiviral activity against HCMV AD-169 infected in HEL cells assessed as reduction in virus plaque formation; assay type: functional, organism-based; conditions: Human betaherpesvirus 5, AD-169, HEL
[12] = Cytotoxicity against human MT4 cells assessed as reduction in cell viability by MTT assay; assay type: toxicity, cell-based
[13] = Cytotoxicity against human HEL cells assessed as reduction in cell growth measured after 3 days by coulter counting method; assay type: toxicity, cell-based; conditions: time 3 day
[14] = Selectivity index, ratio of CC50 for cytotoxicity against human HFF cells infected with VZV Ellen virus assessed as reduction in cell viability by cell titer-glo assay to EC50 for antiviral activity against VZV Ellen infected in HFF cells assessed as inhibition of virus-induced cytopathic effect measured after 14 days; assay type: toxicity, cell-based; conditions: read-out: Ratio CC50/EC50
[15] = Selectivity index, ratio of CC50 for cytotoxicity against human HFF cells infected with HCMV AD-169 virus assessed as reduction in cell viability by cell titer-glo assay to EC50 for antiviral activity against HCMV AD-169 infected in HFF cells assessed as inhibition of virus-induced cytopathic effect measured after 14 days; assay type: toxicity, cell-based; conditions: read-out: Ratio CC50/EC50
[16] = Cytotoxicity against human HFF cells infected with HCMV AD-169 virus assessed as reduction in cell viability by cell titer-glo assay; assay type: toxicity, cell-based
HepG2 2.2.15 [17] = test: Cytotoxicity against human HepG2.2.15 cells assessed as reduction in cell viability by neutral red uptake assay; assay type: functional
Human betaherpesvirus 5 [18] = test: Antiviral activity against HCMV AD-169 infected in HFF cells assessed as reduction in viral replication measured after 14 days; assay type: functional, organism-based; conditions: Human betaherpesvirus 5, AD-169, HFF, 336 h; for EC90: time 14 day
Human alphaherpesvirus 3 [19] = test: Antiviral activity against VZV Ellen infected in HFF cells assessed as reduction in viral replication measured after 14 days; assay type: functional, organism-based; conditions: Human alphaherpesvirus 3, Ellen, 336 h; for EC90: time 14 day
[20] = Cytotoxicity against human HFF cells infected with VZV Ellen virus assessed as reduction in cell viability by cell titer-glo assay; assay type: toxicity, cell-based

Compound | EC50 (Hepatitis B virus) | EC50 (Human alphaherpesvirus 3 [2]) | EC50 (Human alphaherpesvirus 3 [3]) | EC90 (Hepatitis B virus) | EC50 [4] | selectivity ratio at 120 h [6] | MCC at 72 h [7] | selectivity ratio at 120 h [8] | EC50 [9] | EC50 (Human betaherpesvirus 5 [10]) | EC50 (Human betaherpesvirus 5 [11]) | CC50 [12] | further results
C#C[C@@](CO)(Cn1cnc2c(=O)[nH]c(N)nc21)OCP(=O)(N[C@@H](Cc1ccccc1)C(=O)OCCC)N[C@@H](Cc1ccccc1)C(=O)OCCC | 0.00927 µM |  |  |  |  |  |  |  |  |  |  |  | CC50 (HepG2 2.2.15 [1]): > 100 µM
Cc1cn(CC(C)(CO)OCP(=O)(O)O)c(=O)[nH]c1=O (racemic) | > 100 µM | 253 µM | > 324 µM | > 100 µM | > 406 µM | 1 | > 324 µM | 1 | > 406 µM | > 324 µM | > 324 µM | > 406 µM | CC50 (HepG2 2.2.15 [5]): > 100 µM
C#C[C@@](CO)(Cn1cnc2c(=O)[nH]c(N)nc21)OCP(=O)(O)O | 0.0187 µM |  |  |  |  |  |  |  |  |  |  |  | CC50 (HepG2 2.2.15 [1]): > 100 µM
C[C@](CO)(Cn1cnc2c(=O)[nH]c(N)nc21)OCP(=O)(O)O | 0.335 µM |  |  |  |  |  |  |  |  |  |  |  | CC50 (HepG2 2.2.15 [1]): > 100 µM
C#C[C@](CO)(Cn1cnc2c(=O)[nH]c(N)nc21)OCP(=O)(O)O | 0.497 µM |  |  |  |  |  |  |  |  |  |  |  | CC50 (HepG2 2.2.15 [1]): > 100 µM
CC(CO)(Cn1cnc2c(=O)[nH]c(N)nc21)OCP(=O)(O)O (racemic) | 0.14 µM | 3.6 µM | 2.4 µM | 38.1 µM | 32.5 µM | 7 | 300 µM | 5 | 42.1 µM | 5.37 µM | 5.37 µM | 228 µM | CC50 (HepG2 2.2.15 [5]): > 100 µM; CC50 at 72 h [13]: 21.6 µM
CC(CO)(Cn1ccc(N)nc1=O)OCP(=O)(O)O (racemic) | > 100 µM | 45.6 µM | 18.8 µM | > 100 µM | > 426 µM | 1 | > 341 µM | 1 | > 426 µM | 37.3 µM | 24.9 µM | > 426 µM | CC50 (HepG2 2.2.15 [5]): > 100 µM; CC50 at 72 h [13]: > 341 µM
C#CC(CO)(Cn1ccc(=O)[nH]c1=O)OCP(=O)(O)O (racemic) | 21 µM |  |  | 77 µM | > 411 µM | 1 |  | 1 | > 411 µM |  |  | > 411 µM | selectivity ratio at 336 h [14]: > 7; selectivity ratio at 336 h [15]: 1; CC50 [16]: > 150 µM; CC50 (HepG2 2.2.15 [17]): > 100 µM; EC50 (Human betaherpesvirus 5 [18]): 150 µM; EC90 (Human betaherpesvirus 5 [18]): > 150 µM; EC50 (Human alphaherpesvirus 3 [19]): 20.5 µM; EC90 (Human alphaherpesvirus 3 [19]): > 150 µM; CC50 [20]: > 150 µM
Nc1nc2c(ncn2COCCO)c(=O)[nH]1 [ACYCLOVIR] |  |  |  |  |  |  | > 444 µM |  |  | 2.08 µM | 2.27 µM |  | CC50 at 72 h [13]: > 444 µM
C#CC(CO)(Cn1cc(C)c(=O)[nH]c1=O)OCP(=O)(O)O (racemic) | > 100 µM |  |  | > 100 µM | > 393 µM | 1 |  | 1 | > 393 µM |  |  | > 393 µM | selectivity ratio at 336 h [14]: 5; selectivity ratio at 336 h [15]: < 5; CC50 [16]: 140 µM; CC50 (HepG2 2.2.15 [17]): > 100 µM; EC50 (Human betaherpesvirus 5 [18]): 30 µM; EC90 (Human betaherpesvirus 5 [18]): > 30 µM; EC50 (Human alphaherpesvirus 3 [19]): 27.1 µM; EC90 (Human alphaherpesvirus 3 [19]): > 30 µM; CC50 [20]: 139 µM
CC(CO)(Cn1cnc2c(N)ncnc21)OCP(=O)(O)O (racemic) | 0.82 µM | 36.9 µM | 30.8 µM | 21.8 µM | > 352 µM | 1 | > 315 µM | 1 | > 352 µM | 315 µM | 115 µM | > 352 µM | CC50 (HepG2 2.2.15 [5]): > 100 µM; CC50 at 72 h [13]: 205 µM
Nc1nc2c(ncn2COC(CO)CO)c(=O)[nH]1 [GANCICLOVIR] |  |  |  |  |  |  |  |  |  |  |  |  | CC50 [16]: > 150 µM; EC50 (Human betaherpesvirus 5 [18]): 0.86 µM; EC90 (Human betaherpesvirus 5 [18]): 74.2 µM
CC(CO)(Cn1ccc(=O)[nH]c1=O)OCP(=O)(O)O (racemic) | > 100 µM | 340 µM | 270 µM | > 100 µM | > 425 µM | 1 | > 340 µM | 1 | > 425 µM | 186 µM | 260 µM | > 425 µM | CC50 (HepG2 2.2.15 [5]): > 100 µM
C[C@@](CO)(Cn1cnc2c(=O)[nH]c(N)nc21)OCP(=O)(O)O | 0.0423 µM |  |  |  |  |  |  |  |  |  |  |  | CC50 (HepG2 2.2.15 [1]): > 100 µM
C#CC(CO)(Cn1ccc(N)nc1=O)OCP(=O)(O)O (racemic) | > 100 µM |  |  | > 100 µM | > 412 µM | 1 |  | 1 | > 412 µM |  |  | > 412 µM | selectivity ratio at 336 h [14]: > 10; selectivity ratio at 336 h [15]: < 4; CC50 [16]: 132 µM; CC50 (HepG2 2.2.15 [17]): > 100 µM; EC50 (Human betaherpesvirus 5 [18]): 30 µM; EC90 (Human betaherpesvirus 5 [18]): > 30 µM; EC50 (Human alphaherpesvirus 3 [19]): 15.4 µM; EC90 (Human alphaherpesvirus 3 [19]): > 150 µM; CC50 [20]: > 150 µM
C#CC(CO)(Cn1cnc2c(N)ncnc21)OCP(=O)(O)O (racemic) | 25 µM |  |  | 62 µM | 26.6 µM | > 14 |  | > 21 | 18 µM |  |  | > 382 µM | selectivity ratio at 336 h [14]: < 4; selectivity ratio at 336 h [15]: < 5; CC50 [16]: 145 µM; CC50 (HepG2 2.2.15 [17]): > 100 µM; EC50 (Human betaherpesvirus 5 [18]): 30 µM; EC90 (Human betaherpesvirus 5 [18]): > 30 µM; EC50 (Human alphaherpesvirus 3 [19]): > 30 µM; EC90 (Human alphaherpesvirus 3 [19]): > 30 µM; CC50 [20]: 131 µM
O=c1[nH]c(=O)n([C@H]2C[C@H](O)[C@@H](CO)O2)cc1/C=C/Br [BRIVUDINE] |  | 36.1 µM | 0.07 µM |  |  |  | > 300 µM |  |  | 0.34 µM | 0.29 µM |  | CC50 at 72 h [13]: > 300 µM
